Where two headings read alike, the source gives them in different places.
Legend:
PPARγ = target: T1, PPARγ (Homo sapiens, UniProt P37231); test: Confocal immunofluorescence of intracellular PPARγ distribution in THP-1 macrophages; type: cell-based; details: compared with DMSO; 25 μM 25HC3S, 1 μM T0070907
T1 construct: THP-1 monocytes were differentiated to macrophages by adding 100 nM of phorbol 12-myristate 13-acetate (PMA); endogenous in cells; host or cells: THP-1 monocyte-derived macrophages (human, ATCC)
T1 sequence (P37231 1-505): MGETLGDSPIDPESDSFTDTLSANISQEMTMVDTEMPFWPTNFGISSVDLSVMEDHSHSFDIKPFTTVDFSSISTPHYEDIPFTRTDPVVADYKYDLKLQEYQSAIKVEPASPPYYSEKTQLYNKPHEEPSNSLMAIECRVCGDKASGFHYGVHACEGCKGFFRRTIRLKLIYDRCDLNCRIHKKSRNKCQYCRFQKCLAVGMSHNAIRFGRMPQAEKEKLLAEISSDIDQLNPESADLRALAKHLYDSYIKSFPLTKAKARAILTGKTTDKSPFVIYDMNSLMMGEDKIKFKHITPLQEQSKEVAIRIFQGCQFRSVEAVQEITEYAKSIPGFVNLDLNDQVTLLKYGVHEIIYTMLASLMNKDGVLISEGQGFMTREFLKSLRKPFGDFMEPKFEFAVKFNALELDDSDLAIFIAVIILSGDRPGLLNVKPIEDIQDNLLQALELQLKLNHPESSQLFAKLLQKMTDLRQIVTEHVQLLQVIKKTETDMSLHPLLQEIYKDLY
Procedure: Confocal microscopy analysis of intracellular translocation of PPARγ protein distribution. The nuclear marker was stained with DAP1 and PPARγ protein was detected by anti-PPARγ immunofluorescence.
THP-1 derived macrophages were cultured on coverslips in six-well plates and treated with different concentrations of 25HC and 25HC3S for 4 hrs. The cells on coverslips were washed with PBS, fixed with 3.7% formaldehyde for 10 min at 4° C., and then rinsed three times with PBS at room temperature. They were then permeabilized with PBS containing 0.1% of TritonX-100 for 3 min and washed with PBS before blocking by incubation with 5% of normal goat serum in PBS overnight at 4° C. For interaction with primary antibodies, cells were incubated with 2.5% normal goat serum in PBS containing PPARγ antibody for 1 hr in an incubator. Cells were washed in PBS containing 0.05% of Tween 20 (3×10 min). The bound primary antibodies were visualized with Alexa Fluor 488 goat anti-mouse IgG. The minor groove of double stranded DNA as a nuclear marker was stained by DAPI. Afterwashing, coverslips were mounted on slides and viewed with a Zeiss LSM 510 Meta confocal microscope.

[1] = Water solubility (statement); type: physicochemical
[2] = Single peritoneal injection in mice, serum lipids and serum enzymes; type: in vivo
Procedure: Administration to female mice (20-25 g weight) was by peritoneal injection once with or without 72 μg of the nuclear oxysterol in 100 μl of 0.9% NaCl containing 3 μl of ethanol. Twelve hrs following the injection, blood was harvested for analysis of triglycerides and cholesterol.

primary rat hepatocytes = test: Bile acid synthesis rate, conversion of [14C]cholesterol into methanol/water-soluble products; type: cell-based; details: addition to primary rat hepatocytes
Procedure: FIGS. 9A-9B. Effect of the nuclear oxysterol on cholesterol uptake and bile acid biosynthesis. Rat primary hepatocyes were treated with nuclear extracts (methanol/water phase) (A and B) or purified nuclear oxysterol dissolved in control nuclear extract (C) 24 hrs after plating them. Then [^14C]cholesterol was added as described in FIG. 1. Culture media were then harvested at 0, 6, 12, and 24 hrs and radioactivity quantified (A). Bile acid synthesis rates (B and C) were measured as the conversion of [^14C]cholesterol into methanol/water extractable counts as described in (9). Bile acid synthetic rates were determined by the addition of 2.5 μCi of [^14C]cholesterol to each […] mm plate of confluent primary rat hepatocyte cultures ( 2.5×10^7 cells) 24 hrs after plating. Media and cells were harvested […]. Conversion of [^14C]cholesterol into [^14C]-methanol-water soluble products was determined by scintillation counting after extraction with chloroform-methanol (2:1, vol/vol) of cells and of culture media. Rates of bile acid biosynthesis following recombinant adenovirus infection were calculated as the ratio of [^14C]-methanol-water soluble counts to the sum of chloroform plus methanol-water counts. Individual bile acids were identified by HPLC analysis as described above. […] The phases were collected separately and counted.

NFκB = NFκB dependent reporter gene-Luc assay in H441 cells, TNFα-induced; type: cell-based, human
Procedure: A, THP-1 macrophages were treated with 25HC3S or 25HC for 24 hrs followed by addition or no addition of TNFα for another 3 hrs. The nuclear NFκB levels were analyzed by Western blot. The data represent one typical result out of three experiments. […] The reporter gene expression was induced by incubating with 10 ng/ml of TNFα for 3 hrs. The left figure represents cells transfected with pNFκB dependent reporter gene-Luc plasmid alone; the right figure, represents cells co-transfected with PPARγ expression plasmid.
H441 cells were seeded in 96-well plates. When cell density reached 90-95%, the cells were transfected with an expression plasmid as indicated using a lipid-based FuGENE HD transfection reagent according to the manufacture (Roche, Indianapolis, Ind.). A synthetic renilla luciferase reporter, phrG-TK (Promega, Wisconsin, Wis.), was used as a luciferase internal standard. For PPRE reporter gene assay, 50 ng of pGL3-PPRE-acyl-CoA oxidase luciferase reporter, 50 ng of expression plasmid pCMX-PPARγ, and 50 ng of phrG-TK vector (internal standard) were cotransfected as per the manufacture's instruction. […] Luciferase activities were determined using the Dual-Glo Luciferase Assay System according to the manufacturer's protocol (Promega, Wisconsin, Wis.). The amount of luciferase activity was measured using a TopCount NXT Microplate Scintillation and Luminescence Counter (Packard, Meriden, Conn.) and normalized to the amount of phG-TK luciferase activity. Transfections were carried out in triplicate for each sample, and each experiment was repeated three times.

[3] = female mice, 72 μg peritoneal injection once, 12 hrs
[4] = in vivo, only one administration

nuclear PPARγ fluorescence intensities (PPARγ): increased | water solubility [1]: water soluble | water solubility ([1]; listed as 25-hydroxycholesterol 3-sulfate): water-soluble | activities of alkaline phosphotase, SGPT and SGOT in sera ([2]; female mice, 72 μg peritoneal injection once): did not increase
Compound: C[C@H](CCCC(C)(C)O)[C@H]1CC[C@H]2[C@@H]3CC=C4C[C@@H](OS(=O)(=O)O)CC[C@]4(C)[C@H]3CC[C@]12C [25HC3S, 5-cholesten-3β, 25-diol 3-sulphate]
decrease of cholesterol levels in serum [2, 3]: 15% | decrease of triglycerides in serum [2, 3]: 40% | HDL [2, 4]: significantly increases | decrease of serum cholesterol and triglyceride [2, 4]: 20% | effect on bile acid synthetic rates (primary rat hepatocytes): very similar to those in cells directly treated with the nuclear extracts from the StarD1 overexpressing cells | TNFα induction of NFκB dependent reporter gene expression (NFκB; H441, absence of PPARγ expression plasmid): failed to suppress | reduction of TNFα induction of NFκB dependent reporter gene expression (NFκB; H441 co-transfected with PPARγ expression plasmid): 50% | suppression of NFκB reporter induction in the presence of PPARγ antagonist (NFκB; H441 co-transfected with PPARγ, T0070907): the suppression was blunted
